Biological target: T1, PBP6Cp (Chlamydia pneumoniae, UniProt A0A0F7X2J0)
T1 construct: native N-terminal signal peptide and C-terminal transmembrane domain removed; OmpA leader (cleaved by E. coli signal peptidase I); C-terminal Strep tag kept; periplasmic expression in E. coli C43(DE3) with betaine
Assay: TLC of lipid II DD-carboxypeptidase reaction
Format: biochemical
Conditions: lipid II substrate; 50 mM MES pH 5.5, 2 mM MgCl2, 20% DMSO, 37 C, 4 h; inhibitor concentration not given; active-site serine acylation (covalent) described as general beta-lactam mechanism

CC1(C)S[C@@H]2[C@H](NC(=O)Cc3ccccc3)C(=O)N2[C@H]1C(=O)O [penicillin G]
TLC of lipid II DD-carboxypeptidase reaction: DD-carboxypeptidase activity of wild type PBP6Cp was stalled in the presence of penicillin G

Reference: article PMC4388811, “Co-Solvents as Stabilizing Agents during Heterologous Overexpression in Escherichia coli – Application to Chlamydial Penicillin-Binding Protein 6” (PLoS ONE, 2015)
